The text below walks through data of patent US20260356856A1, “KRAS G12S AND G12C INHIBITORS” (MIRATI THERAPEUTICS, INC., priority 2023, published 2026).

Molecules are shown by their SMILES. A value given as a limit tells only on which side of the number the result lay.

Experiment [1] deals with T1, KRas-mediated phosphorylation of ERK in A549 cells (Homo sapiens, UniProt P01116, G12S).
T1 construct: pERK HTRF read-out
The experiment can be described thus: Inhibition of KRas-mediated phosphorylation of ERK (HTRF), A549 cells. In kind it is cell-based. The following applies: HTRF pERK, 3 h incubation. (TR-FRET usually uses a lanthanide donor and a delayed reading to cut background.)

In the next experiment the target is T2, KRas G12S (Homo sapiens, UniProt P01116, G12S).
T2 construct: Biotinylated KRas (corresponding to amino acids 1-169, produced at Accelegan Inc.); biotin (biotinylated); purchased Accelegan Inc
The experiment can be described thus: KRas binding assay, TR-FRET displacement of Cy5 labelled tracer. The settings on record: 60-minute incubation at room temperature, 1% DMSO, pH 7.5. The method, boiled down: (§1)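 Final conditions: 1% DMSO, pH 7.5 HEPES buffer, 60 min, room temperature. Protein: biotin-KRas 1-169 with terbium streptavidin. Output: IC50, four-parameter fit of POC.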

In a further experiment the target is T3, KRas WT (Homo sapiens, UniProt P01116).
T3 construct: Biotinylated KRas (corresponding to amino acids 1-169, produced at Accelegan Inc.); biotin (biotinylated); purchased Accelegan Inc
The description is as above. The settings on record: 60-minute incubation at room temperature, 1% DMSO, pH 7.5. Put shortly:
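Biotinylated KRas (residues 1-169) was incubated with tracer, terbium-streptavidin and compound at 1% DMSO final in 50 mM HEPES pH 7.5 containing 5 mM MgCl2, 0.005% Tween-20 and 1 mM DTT. The plate was read after 60 min at room temperature, and percent-of-control data were fit to a 4-parameter IC50 equation.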

The next experiment addresses T4, KRas G12C (Homo sapiens, UniProt P01116, G12C).
T4 construct: Biotinylated KRas (corresponding to amino acids 1-169, produced at Accelegan Inc.); biotin (biotinylated); purchased Accelegan Inc
The description is as above. The following applies: 60-minute incubation at room temperature, 1% DMSO, pH 7.5. Put shortly: as §1

In experiment [2] the target is T5, KRas-mediated phosphorylation of ERK in H358 cells (Homo sapiens, UniProt P01116, G12C).
T5 construct: pERK HTRF read-out
The experiment can be described thus: Inhibition of KRas-mediated phosphorylation of ERK (HTRF), H358 cells. The settings on record: HTRF pERK, 3 h incubation. In kind it is cell-based.

Experiment [3] addresses T6, KRas-mediated phosphorylation of ERK in MKN1 cells (Homo sapiens, UniProt P01116).
T6 construct: pERK HTRF read-out
Briefly: Inhibition of KRas-mediated phosphorylation of ERK (HTRF), MKN1 cells. In kind it is cell-based. The following applies: MKN1 cells (KRas WT); HTRF pERK; 3 h incubation. The protocol:
Inhibition of KRas Phosphorylation of ERK (HTRF) by Exemplary Compounds of Formula (Ia) or (Ib)
Cisbio HTRF Advanced pERK Assay Catalog #64AERPEH • Cells: MKN1, PSN1 • Procedure: • 1. Day 1: Seed 6,000 cells/well −25 μl/well in 384-well white solid bottom plate; RPM1_10% FBS. Incubate overnight at 37 °C/5% CO2. • 2.

T2 sequence (P01116 1-169 isoform P01116-2 G12S): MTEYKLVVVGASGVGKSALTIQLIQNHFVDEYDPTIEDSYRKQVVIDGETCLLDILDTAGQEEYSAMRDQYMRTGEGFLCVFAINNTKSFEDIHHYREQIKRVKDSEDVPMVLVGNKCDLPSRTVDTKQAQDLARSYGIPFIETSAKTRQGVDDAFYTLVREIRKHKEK
T3 sequence (P01116 1-169 isoform P01116-2): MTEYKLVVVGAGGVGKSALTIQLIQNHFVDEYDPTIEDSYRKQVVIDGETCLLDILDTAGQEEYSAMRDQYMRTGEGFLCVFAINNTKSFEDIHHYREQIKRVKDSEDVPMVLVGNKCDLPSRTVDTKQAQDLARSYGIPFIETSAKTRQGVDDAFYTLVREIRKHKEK
T5 sequence (P01116 1-188 isoform P01116-2 G12C): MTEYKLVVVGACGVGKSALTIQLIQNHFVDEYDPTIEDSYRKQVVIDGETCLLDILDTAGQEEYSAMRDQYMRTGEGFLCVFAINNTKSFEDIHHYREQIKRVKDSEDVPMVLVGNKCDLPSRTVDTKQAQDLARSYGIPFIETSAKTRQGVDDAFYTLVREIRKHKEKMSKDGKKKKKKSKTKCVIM
T6 sequence (P01116 1-188 isoform P01116-2): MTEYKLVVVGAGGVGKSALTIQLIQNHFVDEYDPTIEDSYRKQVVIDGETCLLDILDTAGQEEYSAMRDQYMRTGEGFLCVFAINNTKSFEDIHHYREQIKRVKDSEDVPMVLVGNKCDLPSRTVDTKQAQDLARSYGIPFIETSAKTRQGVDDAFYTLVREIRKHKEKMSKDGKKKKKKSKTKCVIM
T4 sequence (P01116 1-169 isoform P01116-2 G12C): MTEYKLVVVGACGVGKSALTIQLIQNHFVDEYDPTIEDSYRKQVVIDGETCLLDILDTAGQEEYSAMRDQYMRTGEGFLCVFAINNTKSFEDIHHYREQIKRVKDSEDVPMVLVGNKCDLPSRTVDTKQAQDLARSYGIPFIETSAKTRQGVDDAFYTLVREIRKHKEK
T1 sequence (P01116 1-188 isoform P01116-2 G12S): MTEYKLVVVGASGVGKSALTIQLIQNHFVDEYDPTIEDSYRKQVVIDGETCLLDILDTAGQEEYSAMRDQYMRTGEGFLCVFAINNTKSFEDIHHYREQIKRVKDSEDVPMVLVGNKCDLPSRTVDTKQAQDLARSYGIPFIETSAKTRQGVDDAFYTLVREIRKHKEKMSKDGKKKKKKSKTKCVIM

The term IC50 denotes the midpoint of a concentration-inhibition curve. A high value points to a need for much substance. Regarding `CC(=O)N(C)C(=O)C(C)CCN(C)c1nc(OC[C@@]23CCCN2C[C@H](F)C3)nc2c(F)c(-c3ccc(F)c4sc(N)c(C#N)c34)c(Cl)cc12` (stereo partly drawn) [Example 304, N-acetyl-4-((7-(2-amino-3-cyano-7-fluorobenzo[b]thiophen-4-yl)-6-chloro-8-fluoro-2-(((2R,7aS)-2-fluorotetrahydro-1H-pyrrolizin-7a(5H)-yl)methoxy)quinazolin-4-yl)(methyl)amino)-N,2-dimethylbutanamide], the IC50 in experiment [1] amounted to 3 nM; on KRas G12S, 4 nM; at KRas WT it was 12 nM; on KRas G12C, 5 nM; in experiment [2], 3 nM; in experiment [3] it was 60 nM.

`COCCN(C(C)=O)C(=O)C1CCN(c2nc(OC[C@@]34CCCN3C[C@H](F)C4)nc3c(F)c(-c4ccc(F)c5sc(N)c(C#N)c45)c(Cl)cc23)CC1` [Example 305, N-acetyl-1-(7-(2-amino-3-cyano-7-fluorobenzo[b]thiophen-4-yl)-6-chloro-8-fluoro-2-(((2R,7aS)-2-fluorotetrahydro-1H-pyrrolizin-7a(5H)-yl)methoxy)quinazolin-4-yl)-N-(2-methoxyethyl)piperidine-4-carboxamide]: the IC50 came out at 21 nM in experiment [1]; 17 nM at KRas G12S; 21 nM at KRas WT; 12 nM at KRas G12C; 19 nM in experiment [2]; 78 nM in experiment [3].

Regarding `CN(C(=O)CCCN(C)c1nc(OC[C@@]23CCCN2C[C@H](F)C3)nc2c(F)c(-c3ccc(F)c4sc(N)c(C#N)c34)c(Cl)cc12)C(=O)c1cnn(C)c1` [Example 306, N-(4-((7-(2-amino-3-cyano-7-fluorobenzo[b]thiophen-4-yl)-6-chloro-8-fluoro-2-(((2R,7aS)-2-fluorotetrahydro-1H-pyrrolizin-7a(5H)-yl)methoxy)quinazolin-4-yl)(methyl)amino)butanoyl)-N, 1-dimethyl-1H-pyrazole-4-carboxamide], the half-inhibitory concentration (IC50) in experiment [1] was found to be 92 nM; at KRas G12S, 7 nM; on KRas WT it was 10 nM; at KRas G12C, 5 nM; in experiment [2] it was 45 nM; in experiment [3], 134 nM.

In the case of `COCC(=O)N(C)C(=O)CCCN(C)c1nc(OC[C@@]23CCCN2C[C@H](F)C3)nc2c(F)c(-c3ccc(F)c4sc(N)c(C#N)c34)c(Cl)cc12` [Example 307, 4-((7-(2-amino-3-cyano-7-fluorobenzo[b]thiophen-4-yl)-6-chloro-8-fluoro-2-(((2R,7aS)-2-fluorotetrahydro-1H-pyrrolizin-7a(5H)-yl)methoxy)quinazolin-4-yl)(methyl)amino)-N-(2-methoxyacetyl)-N-methylbutanamide], the IC50 was 5 nM in experiment [1]; 2 nM at KRas G12S; 8 nM at KRas WT; 3 nM at KRas G12C; 15 nM in experiment [2]; 70 nM in experiment [3].

`Cc1ccn(C(=O)CCNc2cc(O[C@@H](C)[C@@H]3CCCN3C)nc(-c3noc([C@@]4(C)CCCc5sc(N)c(C#N)c54)n3)n2)n1` [Example 318, (S)-2-amino-4-methyl-4-(3-(4-((3-(3-methyl-1H-pyrazol-1-yl)-3-oxopropyl)amino)-6-((S)-1-((S)-1-methylpyrrolidin-2-yl)ethoxy)pyrimidin-2-yl)-1,2,4-oxadiazol-5-yl)-4,5,6,7-tetrahydrobenzo[b]thiophene-3-carbonitrile]: the IC50 in experiment [1] amounted to 17 nM; at KRas G12S it was 3 nM; at KRas WT it was 12 nM; on KRas G12C it was 2 nM; in experiment [2] it was 908 nM; in experiment [3], 801 nM.

As for `CC(=O)N(C)C(=O)CCCN(C)c1cc(O[C@@H](C)[C@@H]2CCCN2C)nc(-c2cc([C@]3(C)CCCc4sc(N)c(C#N)c43)sn2)n1` [Example 319, N-acetyl-4-((2-(5-((R)-2-amino-3-cyano-4-methyl-4,5,6,7-tetrahydrobenzo[b]thiophen-4-yl)isothiazol-3-yl)-6-((S)-1-((S)-1-methylpyrrolidin-2-yl)ethoxy)pyrimidin-4-yl)(methyl)amino)-N-methylbutanamide], the IC50 in experiment [1] was above 10000 nM; at KRas G12S, above 100000 nM; on KRas WT, above 100000 nM; at KRas G12C, above 100000 nM; in experiment [2], above 10000 nM; in experiment [3] it was above 10000 nM.

For `Cc1ccn(C(=O)CCN(C)c2cc(O[C@@H](C)[C@@H]3CCCN3C)nc(-c3noc([C@]4(C)CCCc5sc(N)c(C#N)c54)n3)n2)n1` [Example 320, (R)-2-amino-4-methyl-4-(3-(4-(methyl (3-(3-methyl-1H-pyrazol-1-yl)-3-oxopropyl)amino)-6-((S)-1-((S)-1-methylpyrrolidin-2-yl)ethoxy)pyrimidin-2-yl)-1,2,4-oxadiazol-5-yl)-4,5,6,7-tetrahydrobenzo[b]thiophene-3-carbonitrile], the IC50 in experiment [1] is 621 nM; at KRas G12S it was 179 nM; on KRas WT it was 264 nM; at KRas G12C, 131 nM; in experiment [2], above 10000 nM; in experiment [3] it was above 10000 nM.

Take `Cc1ccn(C(=O)CCNc2cc(-c3noc4c3CCC[C@@]43CCCc4sc(N)c(C#N)c43)nc(N3CCNC[C@@H]3C)n2)n1` [Example 321, (S)-2-amino-3′-(6-((3-(3-methyl-1H-pyrazol-1-yl)-3-oxopropyl)amino)-2-((S)-2-methylpiperazin-1-yl)pyrimidin-4-yl)-5′,6,6′,7-tetrahydro-4′H,5H-spiro[benzo[b]thiophene-4,7′-benzo[d]isoxazole]-3-carbonitrile]: the IC50 in experiment [1] came out at 192 nM; on KRas G12S it was 21 nM; at KRas WT it was 28 nM; at KRas G12C it was 14 nM; in experiment [2], 1060 nM; in experiment [3] it was 861 nM.

As to `Cc1ccn(C(=O)CCCN(C)c2cc(O[C@@H](C)[C@@H]3CCCN3C)nc(-c3noc([C@@]4(C)CCCc5sc(N)c(C#N)c54)n3)n2)n1` [Example 322, (S)-2-amino-4-methyl-4-(3-(4-(methyl (4-(3-methyl-1H-pyrazol-1-yl)-4-oxobutyl)amino)-6-((S)-1-((S)-1-methylpyrrolidin-2-yl)ethoxy)pyrimidin-2-yl)-1,2,4-oxadiazol-5-yl)-4,5,6,7-tetrahydrobenzo[b]thiophene-3-carbonitrile], the IC50 in experiment [1] was 96 nM; on KRas G12S, 20 nM; at KRas WT, 525 nM; on KRas G12C, 10 nM; in experiment [2] it was 9590 nM; in experiment [3] it was 7310 nM.

Consider `Cc1ccn(C(=O)CCCN(C)c2cc(O[C@@H](C)[C@@H]3CCCN3C)nc(-c3cc([C@]4(C)CCCc5sc(N)c(C#N)c54)sn3)n2)n1` [Example 323, (R)-2-amino-4-methyl-4-(3-(4-(methyl (4-(3-methyl-1H-pyrazol-1-yl)-4-oxobutyl)amino)-6-((S)-1-((S)-1-methylpyrrolidin-2-yl)ethoxy)pyrimidin-2-yl)isothiazol-5-yl)-4,5,6,7-tetrahydrobenzo[b]thiophene-3-carbonitrile], for which the IC50 in experiment [1] turned out to be 140 nM; at KRas G12S, 26 nM; at KRas WT it was 346 nM; at KRas G12C it was 17 nM; in experiment [2] it was 3330 nM; in experiment [3], 1860 nM.

With `Cc1ccn(C(=O)CCCNc2cc(O[C@@H](C)[C@@H]3CCCN3C)nc(-c3noc([C@]4(C)CCCc5sc(N)c(C#N)c54)n3)n2)n1` [Example 324, (R)-2-amino-4-methyl-4-(3-(4-((4-(3-methyl-1H-pyrazol-1-yl)-4-oxobutyl)amino)-6-((S)-1-((S)-1-methylpyrrolidin-2-yl)ethoxy)pyrimidin-2-yl)-1,2,4-oxadiazol-5-yl)-4,5,6,7-tetrahydrobenzo[b]thiophene-3-carbonitrile], the IC50 in experiment [1] was 9 nM; on KRas G12S it was below 2 nM; at KRas WT, 19 nM; on KRas G12C it was below 2 nM; in experiment [2], 262 nM; in experiment [3], 651 nM.
